Values after ≈ are worked out from the molar mass of the structure shown. Where two headings read alike, the source gives them in different places.
Legend:
Assay type in all cases: cell-based
[1] = system: Helicobacter pylori PH 81; experiment: Antibacterial activity against Helicobacter pylori in vitro (MIC, agar method); settings: PH81, H. pylori PH 81, Muller-Hinton agar, 5% sheep blood, incubation 7 days, read-out: Minimum inhibitory concentration (MIC)
Procedure: (§1) The minimum inhibitory concentration (MIC) of the substances investigated against gram-positive and gram-negative strains was determined using standard agar methods. The compounds were dissolved in a small amount of dimethyl sulphoxide, diluted with water and incorporated into liquified DST agar at 50° C. The thus-produced agar plates were used immediately thereafter in the test. The test concentrations lay between 128 and 0.06 μg/ml. The bacterial inoculation solutions were prepared from pre-cultures grown overnight, diluted and applied to the agar surface using an inoculation device (Denley A400). The plates were incubated at 35° C. for 20 hours. The MIC was determined as the lowest concentration of substance which prevented a visible growth. A scarcely visible turbidity and the growth of less than 5 colonies were ignored. The determinations of the antibacterial activities (Tab. 1) were carried out not only for the free bases, but also for the hydrochloride salt of each compound. The same values were obtained within experimental error.
(§2) The antibacterial activities against Helicobacter pylori were carried out analogously to the method described above with the following variations: The compounds were incorporated into Muller-Hinton agar containing 5% sheep blood additive. The test concentrations lay between 10 and 0.1 μg/ml. […]

[2] = system: Helicobacter pylori K 1585; experiment: as above; settings: K1585, H. pylori K 1585, Muller-Hinton agar, 5% sheep blood, incubation 4 days, read-out: Minimum inhibitory concentration (MIC)
Procedure: as §1, §2

Staph. aureus 887 = experiment: Antibacterial activity in vitro (MIC, standard agar method); settings: Staphylococcus aureus, DST agar, 35° C., 20 hours, read-out: Minimum inhibitory concentration (MIC)
Procedure: as §1

S. aureus 853 = experiment: as above; settings: Staphylococcus aureus, DST agar, 35° C., 20 hours, read-out: Minimum inhibitory concentration (MIC)
Procedure: as §1

E. coli 1346 = experiment: as above; settings: Escherichia coli, DST agar, 35° C., 20 hours, read-out: Minimum inhibitory concentration (MIC)
Procedure: as §1

Staph. aureus 25923 = experiment: as above; settings: Staphylococcus aureus, DST agar, 35° C., 20 hours, read-out: Minimum inhibitory concentration (MIC)
Procedure: as §1

E. coli DC2 = experiment: as above; settings: Escherichia coli; E. coli DC2; DST agar, 35° C., 20 hours; read-out: Minimum inhibitory concentration (MIC)
Procedure: as §1

E. faecalis 6 = experiment: as above; settings: read-out: Minimum inhibitory concentration (MIC)
Procedure: as §1

E. coli AS-19 = experiment: as above; settings: Escherichia coli, AS19, DST agar, 35° C., 20 hours, read-out: Minimum inhibitory concentration (MIC)
Procedure: as §1

P. aeruginosa 799/61 = experiment: as above; settings: Pseudomonas aeruginosa, 799/61, 20 h, read-out: Minimum inhibitory concentration (MIC)
Procedure: as §1

P. aeroginosa BA = experiment: as above; settings: DST agar, 35° C., 20 hours, read-out: Minimum inhibitory concentration (MIC)
Procedure: as §1

S. aureus 101 = experiment: as above; settings: Staphylococcus aureus, DST agar, 35° C., 20 hours, read-out: Minimum inhibitory concentration (MIC)
Procedure: as §1

E. cloacae P 99 = experiment: as above; settings: Enterobacter cloacae, P99, 20 h, read-out: Minimum inhibitory concentration (MIC)
Procedure: as §1

[3] = system: E. coli K12 KEA-12 (GyrA); experiment: as above; settings: Escherichia coli, 20 h, read-out: Minimum inhibitory concentration (MIC)
Procedure: as §1

Staph. haemolyticus 75 = experiment: as above; settings: Staphylococcus haemolyticus, DST agar, 35° C., 20 hours, read-out: Minimum inhibitory concentration (MIC)
Procedure: as §1

E. coli H560 = experiment: as above; settings: Escherichia coli, H560, 20 h, read-out: Minimum inhibitory concentration (MIC)
Procedure: as §1

P. aeroguinosa 3351 = experiment: as above; settings: read-out: Minimum inhibitory concentration (MIC)
Procedure: as §1

E. coli B = experiment: as above; settings: Escherichia coli, DST agar, 35° C., 20 hours, read-out: Minimum inhibitory concentration (MIC)
Procedure: as §1

K. oxytoca 1082E = experiment: as above; settings: Klebsiella oxytoca, DST agar, 35° C., 20 hours, read-out: Minimum inhibitory concentration (MIC)
Procedure: as §1

E. coli 159 R = experiment: as above; settings: Escherichia coli, 159R, 20 h, read-out: Minimum inhibitory concentration (MIC)
Procedure: as §1

E. coli 25922 = experiment: as above; settings: read-out: Minimum inhibitory concentration (MIC)
Procedure: as §1

B. subtilis ATCC 585369 = experiment: as above; settings: Bacillus subtilis, ATCC585369, DST agar, 35° C., 20 hours, read-out: Minimum inhibitory concentration (MIC)
Procedure: as §1

S. marcescens = experiment: as above; settings: Serratia marcescens, 20 h, read-out: Minimum inhibitory concentration (MIC)
Procedure: as §1

E. coli 1527 E = experiment: as above; settings: Escherichia coli, read-out: Minimum inhibitory concentration (MIC)
Procedure: as §1

[4] = Enterococcus faecalis, E. faecalis 6, DST agar, 35° C., 20 hours
[5] = Escherichia coli, E. coli 25922, DST agar, 35° C., 20 hours

Structure (SMILES)	MIC (Staph. aureus 887)	MIC (E. coli 1346)	MIC (Staph. aureus 25923)	MIC (E. coli DC2)	MIC (E. faecalis 6; [4])	MIC (E. coli AS-19)	MIC (P. aeruginosa 799/61)	MIC (P. aeroginosa BA)	MIC (E. cloacae P 99)	MIC [3]	MIC (Staph. haemolyticus 75)	MIC (E. coli H560)	MIC (P. aeroguinosa 3351; 20 h)	MIC (E. coli B)	MIC (K. oxytoca 1082E)	MIC (E. coli 25922; Escherichia coli, 25922, 20 h)	MIC (B. subtilis ATCC 585369)	MIC (E. faecalis 6; Enterococcus faecalis, 6, 20 h)	MIC (S. marcescens)	MIC (E. coli 1527 E; 1527E, 20 h)	other results
Cc1cc(-c2nc3ccc(-c4ccc5nc(-c6ccc(O)c(C)c6)[nH]c5c4)cc3[nH]2)ccc1O [Example 2]	≤ 0.25 µg/mL	2 µg/mL (≈ 4.48 µM)	≤ 0.25 µg/mL	4 µg/mL (≈ 8.96 µM)	≤ 0.25 µg/mL	4 µg/mL (≈ 8.96 µM)	> 128 µg/mL	> 128 µg/mL	> 128 µg/mL	> 128 µg/mL	≤ 0.25 µg/mL	> 128 µg/mL	> 128 µg/mL	0.5 µg/mL (≈ 1.12 µM)	> 128 µg/mL	128 µg/mL (≈ 287 µM)					MIC [1]: < 0.1 µg/mL; MIC [2]: 1 µg/mL (≈ 2.24 µM); MIC (S. aureus 853): ≤ 0.25 µg/mL; MIC (S. aureus 101): 0.5 µg/mL (≈ 1.12 µM); MIC (E. coli 159 R): > 128 µg/mL
COc1ccc(-c2nc3ccc(-c4ccc5nc(-c6ccc(OC)cc6)[nH]c5c4)cc3[nH]2)cc1 [Example 8, 2,2'-Bis-(4-methoxy-phenyl)-6,6'-dibenzimidazole]	0.5 µg/mL (≈ 1.12 µM)	8 µg/mL (≈ 17.9 µM)	1 µg/mL (≈ 2.24 µM)	64 µg/mL (≈ 143 µM)		32 µg/mL (≈ 71.7 µM)	> 128 µg/mL	> 128 µg/mL	> 128 µg/mL	> 128 µg/mL	≤ 0.25 µg/mL	> 128 µg/mL	> 128 µg/mL	8 µg/mL (≈ 17.9 µM)	> 128 µg/mL	> 128 µg/mL	0.5 µg/mL (≈ 1.12 µM)	> 128 µg/mL	> 128 µg/mL		MIC (E. coli 1527 E; E. coli 1527 E, DST agar, 35° C., 20 hours): > 12 µg/mL
Nc1ccc(-c2nc3ccc(-c4ccc5nc(-c6ccc(N)cc6)[nH]c5c4)cc3[nH]2)cc1 [Example 7, 4-[2'-(4-Amino-phenyl)-6,6'-dibenzimidazol-2-yl]-phenylamine]	2 µg/mL (≈ 4.8 µM)	≤ 0.12 µg/mL	1 µg/mL (≈ 2.4 µM)	≤ 0.12 µg/mL	≤ 0.12 µg/mL	4 µg/mL (≈ 9.6 µM)	> 128 µg/mL	> 128 µg/mL	> 128 µg/mL	> 128 µg/mL	> 0.12 µg/mL	> 128 µg/mL	> 128 µg/mL	0.25 µg/mL (≈ 0.6 µM)	> 128 µg/mL		2 µg/mL (≈ 4.8 µM)		> 128 µg/mL	> 128 µg/mL	MIC (E. coli 25922; [5]): > 128 µg/mL
c1coc(-c2nc3ccc(-c4ccc5nc(-c6ccco6)[nH]c5c4)cc3[nH]2)c1 [Example 10, 2,2'-Difuran-2-yl-6,6'-dibenzimidazole]	2 µg/mL (≈ 5.46 µM)	8 µg/mL (≈ 21.8 µM)	4 µg/mL (≈ 10.9 µM)	1 µg/mL (≈ 2.73 µM)		0.5 µg/mL (≈ 1.36 µM)	> 128 µg/mL	> 128 µg/mL	> 128 µg/mL	> 128 µg/mL	0.25 µg/mL (≈ 0.682 µM)	> 128 µg/mL			> 128 µg/mL			> 128 µg/mL	> 128 µg/mL	> 128 µg/mL	MIC (P. aeroguinosa 3351; P. aeroguinosa 3351, DST agar, 35° C., 20 hours): > 129 µg/mL; MIC (E. coli 25922; [5]): > 128 µg/mL
COc1cc(-c2nc3ccc(-c4ccc5nc(-c6ccc(O)c(OC)c6)[nH]c5c4)cc3[nH]2)ccc1O [Example 3, 4-[2'-(4-Hydroxy-3-methoxy-phenyl)-6,6'-dibenzimidazol-2-yl]-2-methoxy-phenyl]	8 µg/mL (≈ 16.7 µM)	64 µg/mL (≈ 134 µM)	4 µg/mL (≈ 8.36 µM)	8 µg/mL (≈ 16.7 µM)	4 µg/mL (≈ 8.36 µM)	> 128 µg/mL	> 128 µg/mL	> 128 µg/mL	> 128 µg/mL	> 128 µg/mL	4 µg/mL (≈ 8.36 µM)	> 128 µg/mL	> 128 µg/mL	16 µg/mL (≈ 33.4 µM)	> 128 µg/mL	> 128 µg/mL	32 µg/mL (≈ 66.9 µM)		> 128 µg/mL	> 128 µg/mL	

Reference: US5824698A, “Antibacterial dibenzimidazole derivatives” (priority 1994, dated 1998)
